Results on 2 molecules are retold here after US11873279B2, “Compositions for treatment of ocular diseases” (Perfuse Therapeutics, Inc., priority 2020, dated 2024).

In data set [1] the test system is laser-induced NHP glaucoma model. In words: Laser-induced NHP glaucoma model, optic nerve head blood flow. It counts as in vivo, non-human primate (NHP). The following applies: dose-dependent. From the text: Other examples of relevant animal glaucoma models are Morrison's rat model of chronically elevated IOP and the laser-induced non-human primate (NHP) glaucoma model. Glaucoma in Morrison's rat model is induced by sustained elevation of IOP through hypertonic saline administration via episcleral veins. […] Efficacy in the above-described glaucoma models is defined as reduction in IOP, improvement in optic nerve head or retinal blood flow from baseline, prevention or slowing of the progression of structural neurodegenerative changes such as retinal nerve fiber layer thickness as measured by optical coherence tomography (OCT) or retinal ganglion cell counts on flat mount as well as functional changes such as electroretinography (ERG) or contrast sensitivity after treatment with a composition containing Edonentan crystalline forms.

Data set [2] in a line: Slurry conversion of crystalline forms, XRPD confirmation (thermodynamic stability). In kind it is physicochemical. As for the experimental part:
For example, a disclosed crystalline form (e.g., Form 4), may be stored under practical and economical storage conditions, while retaining physical properties so that it may be manufactured into a dosage form. In another set of examples, a disclosed crystalline form (e.g., Form 1, Form 2, Form 3) are converted to disclosed crystalline form (e.g., Form 4). For example, heating a slurry of crystalline Form 1 in about 20 mL of a mixture of isopropanol and water (1:2) at 80° C. for 24 hours, and then cooling and filtering the sample obtained from the solution affords the crystalline Form 4. In another example, stirring the amorphous form of a compound of Formula I in 20 mL of water at 25° C. for 15 hours affords crystalline Form 2, and then subsequently heating crystalline Form 2 at 100° C. for 40 hours followed by filtration affords the crystalline Form 4. In yet another example, heating a slurry of the anhydrous crystalline Form 3 in 30 mL of water at 80° C. for 40 hours and then cooling and filtering the sample obtained from the solution affords the crystalline Form 4. […] In an embodiment, a disclosed crystalline form may have improved chemical and/or physical stability when e.g., compounded in a pharmaceutical formulation, as compared to e.g., the amorphous form. In some embodiments, the crystalline form is crystalline Form 4.
In an alternate method, 150 mg of Edonentan (Form 3) was added to a mixture of isopropanol and water (1 mL and 2 mL, respectively). The resulting slurry was stirred at 15° C. for 48 hours and then filtered.
In an alternate method, 200 mg of Edonentan (Form 1) was added to a mixture of isopropanol and water (1.3 mL and 2.6 mL, respectively). The resulting solution was heated to 80° C. and stirred for 24 h, then cooled and filtered.

SMILES strings stand for the structures.

In the case of `Cc1onc(NS(=O)(=O)c2ccccc2-c2ccc(-c3ncco3)cc2CN(C)C(=O)CC(C)(C)C)c1C` [Edonentan, N-[[2′-[[(4,5-dimethyl-3-isoxazolyl)amino]sulfonyl]-4-(2-oxazolyl)[1,1′-biphenyl]-2-yl]methyl]-N,3,3-trimethylbutanamide], the “Optic nerve head blood flow” value in data set [1] is given as “improve optic nerve head blood flow in a dose-dependent manner”.

Turning to `Cc1onc(NS(=O)(=O)c2ccccc2-c2ccc(-c3ncco3)cc2CN(C)C(=O)CC(C)(C)C)c1C` [Form 4, N-[[2′-[[(4,5-dimethyl-3-isoxazolyl)amino]sulfonyl]-4-(2-oxazolyl)[1,1′-biphenyl]-2-yl]methyl]-N,3,3-trimethylbutanamide], the “Thermodynamic stability relative to Form 1” value in data set [2] (Form 1 in isopropanol/water (1.3 mL/2.6 mL), 80° C., 24 h, converted to Form 4 by XRPD) is reported as “more thermodynamically stable than Form 1”. The “Thermodynamic stability relative to Form 3” value in data set [2] (Form 3 slurry in isopropanol/water (1 mL/2 mL), 15° C., 48 hours, converted to Form 4 by XRPD) is listed as “more thermodynamically stable than Form 3”. Also, the “Thermodynamic stability compared to the other crystalline forms” value in data set [2] (summary statement of Example 6) is “higher thermodynamic stability compared to Form 1, Form 2 and Form 3”.
